US10016434B2, “Methods for the treatment of HER2 amplified cancer” (Pharmacyclics LLC, priority 2013, dated 2018)
“Also recorded” adds a separate entry of the source. Where two headings read alike, the source gives them in different places.

How the values were obtained:
[1] = test system: HER2 and HER4 activation in BT-474 cells; assay: HER2 and HER4 activation assessed by phosphorylation of downstream targets (FIG. 16); format: cell-based; settings: BT-474, ibrutinib compared to AVL-292
[2] = biological target: T1, BTK (Homo sapiens, UniProt Q06187); assay: Covalent binding to Btk, DoHH2 cells with PCI-33380 (FIG. 24); settings: inhibitors 1 h, then PCI-33380 2 uM 30 min
T1 construct: endogenous in cells; host or cells: DoHH2
T1 sequence (Q06187 whole entry): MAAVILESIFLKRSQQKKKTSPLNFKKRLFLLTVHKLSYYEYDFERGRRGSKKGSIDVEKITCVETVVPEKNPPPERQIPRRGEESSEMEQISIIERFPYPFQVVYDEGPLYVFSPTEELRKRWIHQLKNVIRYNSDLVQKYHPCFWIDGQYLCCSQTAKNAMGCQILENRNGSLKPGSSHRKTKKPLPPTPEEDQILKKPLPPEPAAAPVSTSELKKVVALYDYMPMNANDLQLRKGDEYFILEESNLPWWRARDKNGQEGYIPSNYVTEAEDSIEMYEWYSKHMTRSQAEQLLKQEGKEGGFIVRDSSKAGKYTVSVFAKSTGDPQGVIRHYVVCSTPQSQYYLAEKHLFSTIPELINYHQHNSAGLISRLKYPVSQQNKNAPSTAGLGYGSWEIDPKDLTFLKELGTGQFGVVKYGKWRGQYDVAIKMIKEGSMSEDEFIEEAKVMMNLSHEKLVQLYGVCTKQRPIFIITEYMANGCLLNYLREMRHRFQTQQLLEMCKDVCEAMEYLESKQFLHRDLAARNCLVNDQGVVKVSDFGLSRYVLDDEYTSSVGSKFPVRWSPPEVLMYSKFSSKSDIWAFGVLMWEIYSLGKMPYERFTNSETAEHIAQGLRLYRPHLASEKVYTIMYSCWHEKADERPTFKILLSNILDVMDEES

[3] = test system: EGFR, HER2, HER4 and downstream targets (MEK, Akt signaling pathway); assay: Signaling pathway inhibition (FIGS. 19-21); format: cell-based; settings: for inhibition of MEK and Akt signaling pathway compared with EGFR and HER2 signaling pathway: FIG. 21
[4] = biological target: Erb4 (Homo sapiens, UniProt Q15303); assay: Kinase activity assay (LabChip platform, Nanosyn)
Sequence of Erb4 (Q15303 26-1292 isoform Q15303-3 limits assumed): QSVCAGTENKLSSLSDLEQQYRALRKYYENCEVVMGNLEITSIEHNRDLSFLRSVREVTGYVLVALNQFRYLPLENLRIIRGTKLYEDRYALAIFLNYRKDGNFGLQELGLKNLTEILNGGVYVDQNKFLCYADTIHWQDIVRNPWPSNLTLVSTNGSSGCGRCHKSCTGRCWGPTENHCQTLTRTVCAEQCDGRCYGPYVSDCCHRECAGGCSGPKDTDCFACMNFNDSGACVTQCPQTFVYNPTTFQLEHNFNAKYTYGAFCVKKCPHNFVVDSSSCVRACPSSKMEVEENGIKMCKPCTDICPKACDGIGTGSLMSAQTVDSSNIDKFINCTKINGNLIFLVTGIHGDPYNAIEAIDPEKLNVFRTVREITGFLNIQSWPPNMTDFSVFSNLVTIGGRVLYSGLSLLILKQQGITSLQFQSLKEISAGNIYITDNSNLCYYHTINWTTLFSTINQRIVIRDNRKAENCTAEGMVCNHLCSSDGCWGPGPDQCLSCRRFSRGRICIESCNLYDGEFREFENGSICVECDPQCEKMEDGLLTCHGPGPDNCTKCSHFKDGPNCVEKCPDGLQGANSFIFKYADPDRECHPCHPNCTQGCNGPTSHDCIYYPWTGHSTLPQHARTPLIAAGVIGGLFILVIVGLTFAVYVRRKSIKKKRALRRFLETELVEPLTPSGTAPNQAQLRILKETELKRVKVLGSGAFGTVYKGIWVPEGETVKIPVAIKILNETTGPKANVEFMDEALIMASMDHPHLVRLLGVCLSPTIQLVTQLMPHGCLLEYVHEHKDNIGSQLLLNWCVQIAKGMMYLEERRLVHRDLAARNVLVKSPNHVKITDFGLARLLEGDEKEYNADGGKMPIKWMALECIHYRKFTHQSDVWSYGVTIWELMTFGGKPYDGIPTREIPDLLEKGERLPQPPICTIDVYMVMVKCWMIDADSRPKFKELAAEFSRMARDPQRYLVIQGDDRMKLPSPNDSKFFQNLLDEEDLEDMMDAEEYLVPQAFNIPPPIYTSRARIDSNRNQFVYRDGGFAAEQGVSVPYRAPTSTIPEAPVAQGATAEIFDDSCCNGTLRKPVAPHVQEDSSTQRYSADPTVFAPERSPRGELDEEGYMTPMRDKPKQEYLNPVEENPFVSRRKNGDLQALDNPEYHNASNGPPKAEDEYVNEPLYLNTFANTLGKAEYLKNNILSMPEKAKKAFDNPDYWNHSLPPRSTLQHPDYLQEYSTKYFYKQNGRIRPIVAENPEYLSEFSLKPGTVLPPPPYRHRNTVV

[5] = test system: BT-474 cells; assay: Tumorsphere culture; format: cell-based; settings: BT-474, 1 hour treatment, wash out, seven days culture
[6] = test system: BT-474 cells; assay: Cell growth inhibition wash out assay; format: cell-based; settings: BT-474, 1 hour exposure (0.1, 0.25, 0.5 μM), 6 days culture
[7] = test system: MDA-MB-453 cells; assay: Cell proliferation assay with alamar blue
[8] = test system: SK-BR3 cells; assay: Cell growth inhibition wash out assay; format: cell-based; settings: SK-BR3, 1 hour exposure (0.1, 0.25, 0.5 μM), 6 days culture
[9] = test system: MDA-MB-453 xenograft; assay: Mouse MDA-MB-453 xenograft; format: in vivo
[10] = test system: MDA-MB-453 cells; assay: Resistance induced by heregulin; format: cell-based; settings: MDA-MB-453, higher concentration of ibrutinib
[11] = test system: UACC-893 cells; assay: Cell proliferation assay with alamar blue; format: cell-based; settings: UACC-893, 3 days continuous exposure
[12] = test system: SK-BR3 cells; assay: Cell cycle analysis; format: cell-based; settings: SK-BR3, 1 h exposure, measured at 24 h
[13] = biological target: LCK (Homo sapiens, UniProt P06239); assay: LCK dialysis assay; format: biochemical; settings: 10 nM or 100 nM, 1 h pre-incubation, 24 h dialysis
Sequence of LCK (P06239 whole entry, species assumed): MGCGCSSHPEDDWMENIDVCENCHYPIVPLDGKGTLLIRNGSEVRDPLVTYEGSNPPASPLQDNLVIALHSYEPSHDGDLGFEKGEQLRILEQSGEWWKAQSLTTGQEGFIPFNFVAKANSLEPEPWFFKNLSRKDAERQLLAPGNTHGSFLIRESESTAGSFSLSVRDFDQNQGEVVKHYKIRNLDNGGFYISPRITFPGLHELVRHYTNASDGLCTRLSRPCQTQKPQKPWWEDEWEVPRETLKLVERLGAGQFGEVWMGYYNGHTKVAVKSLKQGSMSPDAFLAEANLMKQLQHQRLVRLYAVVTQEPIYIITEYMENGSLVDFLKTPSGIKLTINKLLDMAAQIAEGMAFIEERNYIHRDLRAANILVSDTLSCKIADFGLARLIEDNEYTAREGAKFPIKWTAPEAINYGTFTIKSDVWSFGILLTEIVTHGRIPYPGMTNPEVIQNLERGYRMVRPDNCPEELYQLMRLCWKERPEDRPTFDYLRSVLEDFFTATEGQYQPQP
Protocol: Control samples included: DMSO+5 nM LCK dialyzed in the identical manner. […] Initial velocity was determined in the samples.

[14] = biological target: ITK (Homo sapiens, UniProt Q08881); assay: Kinase activity assay (LabChip platform, Nanosyn); format: biochemical; settings: recombinant enzyme 5 nM, substrate 1 μM
[15] = biological target: TEC (Homo sapiens, UniProt P42680); assay: Kinase activity assay (LabChip platform, Nanosyn); format: biochemical; settings: recombinant enzyme 5 nM, substrate 1 μM
[16] = biological target: EGFR (Homo sapiens, UniProt P00533); assay: EGFR dialysis assay; format: biochemical; settings: 10 nM or 100 nM, 1 h pre-incubation, 24 h dialysis
Sequence of EGFR (P00533 25-1210): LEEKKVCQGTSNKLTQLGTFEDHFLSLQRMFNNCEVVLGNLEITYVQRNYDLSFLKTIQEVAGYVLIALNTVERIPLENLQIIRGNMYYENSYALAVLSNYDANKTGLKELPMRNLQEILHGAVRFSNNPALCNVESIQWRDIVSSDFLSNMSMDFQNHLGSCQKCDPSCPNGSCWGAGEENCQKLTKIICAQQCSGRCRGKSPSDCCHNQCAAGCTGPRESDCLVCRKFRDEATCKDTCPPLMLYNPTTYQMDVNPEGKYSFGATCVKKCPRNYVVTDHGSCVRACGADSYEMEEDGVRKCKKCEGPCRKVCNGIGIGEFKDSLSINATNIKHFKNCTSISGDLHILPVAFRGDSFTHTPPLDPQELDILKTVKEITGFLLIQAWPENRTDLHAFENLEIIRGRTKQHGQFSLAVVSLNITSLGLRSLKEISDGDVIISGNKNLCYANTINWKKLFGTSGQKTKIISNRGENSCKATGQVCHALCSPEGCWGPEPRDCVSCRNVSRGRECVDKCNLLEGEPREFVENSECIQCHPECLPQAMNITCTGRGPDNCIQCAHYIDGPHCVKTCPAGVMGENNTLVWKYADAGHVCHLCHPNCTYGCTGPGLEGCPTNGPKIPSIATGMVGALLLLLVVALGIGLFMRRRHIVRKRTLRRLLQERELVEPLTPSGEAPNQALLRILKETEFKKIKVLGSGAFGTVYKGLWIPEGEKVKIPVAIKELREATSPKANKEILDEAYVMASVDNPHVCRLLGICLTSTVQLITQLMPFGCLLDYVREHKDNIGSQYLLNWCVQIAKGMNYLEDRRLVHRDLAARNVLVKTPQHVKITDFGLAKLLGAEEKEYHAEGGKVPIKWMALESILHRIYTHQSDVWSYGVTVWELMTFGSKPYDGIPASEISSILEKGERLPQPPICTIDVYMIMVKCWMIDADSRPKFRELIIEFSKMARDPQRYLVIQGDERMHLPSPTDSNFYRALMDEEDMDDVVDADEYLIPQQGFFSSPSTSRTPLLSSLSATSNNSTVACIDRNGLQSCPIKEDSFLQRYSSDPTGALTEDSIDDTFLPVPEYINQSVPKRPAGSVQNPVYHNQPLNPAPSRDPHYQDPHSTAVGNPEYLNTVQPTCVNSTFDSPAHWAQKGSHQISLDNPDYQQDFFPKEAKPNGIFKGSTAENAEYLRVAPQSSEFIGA
Protocol: Control samples included: DMSO+5 nM EGFR dialyzed in the identical manner. […] Initial velocity was determined in the samples.

[17] = biological target: EGFR (ErbB1) (Homo sapiens, UniProt P00533); assay: Kinase activity assay (LabChip platform, Nanosyn); settings: recombinant enzyme 5 nM, substrate 1 μM
Sequence of EGFR (ErbB1) (P00533 25-1210): as above

[18] = test system: BT-474 cells; assay: Cell proliferation assay with alamar blue; settings: BT-474, 3 days continuous exposure
[19] = test system: HER signaling pathway; assay: One hour treatment followed by washout, signaling pathways (FIG. 33); format: cell-based
[20] = biological target: JAK3 (Homo sapiens, UniProt P52333); assay: Kinase activity assay (LabChip platform, Nanosyn); format: biochemical; settings: recombinant enzyme 5 nM, substrate 1 μM
[21] = test system: Btk signaling pathways in Mino cells; assay: Signaling pathways in B cells (FIG. 23); format: cell-based
[22] = test system: BT-474 cells; assay: Resistance induced by heregulin; format: cell-based; settings: BT-474, higher concentration of ibrutinib
[23] = test system: ErbB kinases and down-stream signaling pathways; assay: Washout experiment, immunoblotting of total and phosphorylated proteins (FIG. 10); format: cell-based; settings: BT474 and SKBR-3, 0.1 or 0.5 μM, various times, then cultured additional 2 hours
Protocol: Cells were washed once with cold PBS and lysed in 1× sample buffer (Invitrogen). The whole cell lysate was boiled, sonicated, and then loaded onto a 4-15% gradient SDS-PAGE gel. The proteins were transferred to PVDF membrane. After probing with antibodies, the detection was conducted using an Odyssey […] (Li-Cor). Paired mouse and rabbit antibodies were used to probe the total and corresponding phosphorylated proteins.

[24] = test system: aldehyde dehydrogenase (ALDH) in BT-474 cells; assay: Aldefluor assay
[25] = test system: SK-BR3 cells; assay: Cell proliferation assay with alamar blue; settings: SK-BR3, 3 days continuous exposure
[26] = biological target: HER4 (Homo sapiens, UniProt Q15303); assay: HER4 dialysis assay; format: biochemical; settings: 10 nM or 100 nM, 1 h pre-incubation, 24 h dialysis
Sequence of HER4 (Q15303 26-1292 isoform Q15303-3 limits assumed): as the sequence (Q15303 26-1292 isoform Q15303-3 limits assumed) above

[27] = biological target: ErbB kinases; assay: Separate dialysis experiment on kinase inhibition (data not shown); format: biochemical
[28] = biological target: TXK (Homo sapiens, UniProt P42681); assay: Kinase activity assay (LabChip platform, Nanosyn); format: biochemical; settings: recombinant enzyme 5 nM, substrate 1 μM
[29] = biological target: ErB2 (Homo sapiens, UniProt P04626); assay: Kinase activity assay (LabChip platform, Nanosyn); settings: recombinant enzyme 5 nM, substrate 1 μM
[30] = test system: BT-474 cells; assay: Cell cycle analysis; format: cell-based; settings: BT-474, 1 h exposure, measured at 24 h
[31] = test system: BT-474 cells; assay: Apoptosis assay (annexin-V / sub G0); format: cell-based
[32] = biological target: BLK (Homo sapiens, UniProt P51451); assay: Kinase activity assay (LabChip platform, Nanosyn); format: biochemical; settings: recombinant enzyme 5 nM, substrate 1 μM

C=CC(=O)Nc1cccc(Nc2nc(Nc3ccc(OCCOC)cc3)ncc2F)c1 [AVL-292, reference compound]
inhibition of HER2 and HER4 activation (phosphorylation of downstream targets, such as AKT) [1]: only ibrutinib inhibited

COc1cc2ncnc(Nc3ccc(F)c(Cl)c3)c2cc1NC(=O)/C=C/CN1CCCCC1 [dacomitinib, reference compound]
covalent binding to Btk [2]: did not
inhibition of EGFR and downstream targets ([3]; FIG. 20): less effective

COc1cc2ncnc(Nc3ccc(F)c(Cl)c3)c2cc1OCCCN1CCOCC1 [gefitinib, reference compound]
HER4 inhibitory activity compared to ibrutinib ([4]; stated without source): lower HER2/4 inhibitory activity

C=CC(=O)N1CCC[C@@H](n2nc(-c3ccc(Oc4ccccc4)cc3)c3c(N)ncnc32)C1 [ibrutinib, (R)-1-(3-(4-amino-3-(4-phenoxyphenyl)-1H-pyrazolo[3,4-d]pyrimidin-1-yl)piperidin-1-yl)prop-2-en-1-one]
tumorsphere growth (size) [5]: inhibited tumorsphere growth
tumorsphere number [5]: without affecting tumorsphere number
growth inhibitory effect after wash out [6]: sustained and was dose dependent
growth inhibitory effect ([7]; MDA-MB-453, 3 days continuous exposure): sensitive to the growth inhibitory effect; also recorded: confirmed ibrutinib inhibitory activity
inhibition of cell growth compared to gefitinib ([7]; MDA-MB-453, fluorescence-based assay): more potent than gefitinib
growth inhibitory effect after wash out [8]: sustained and was dose dependent
solid tumor growth (tumor volume) [9]: inhibited solid tumor growth
overcoming resistance induced by heregulin [10]: able to overcome resistance induced by heregulin
growth inhibitory effect [11]: sensitive to the growth inhibitory effect
cell cycle effect [12]: G1 arrest
reversibility of LCK inhibition after dialysis [13]: reversible inhibition
reversibility of LCK inhibition after dialysis ([13]; listed as Ibrutinib): reversibly inhibits
inhibition of ITK [14]: able to inhibit
inhibition of TEC [15]: able to inhibit
reversibility of EGFR inhibition after dialysis [16]: irreversible inhibition
reversibility of EGFR inhibition after dialysis ([16]; listed as Ibrutinib): irreversibly inhibits
inhibition of HER2 and HER4 activation (phosphorylation of downstream targets, such as AKT) [1]: only ibrutinib inhibited HER2 and HER4 activation
inhibition of EGFR (ErbB1) [17]: able to inhibit; also recorded: effective in inhibiting
IC50 toward EGFR compared with HER2 and HER4 ([3]; FIG. 19B): higher IC50
inhibition of MEK and Akt signaling pathway compared with EGFR and HER2 signaling pathway [3]: more potent inhibitor of MEK and Akt pathways than the EGFR and HER2 pathways
inhibition of MEK and Akt signaling pathway compared with EGFR and HER2 signaling pathway ([3]; listed as Ibrutinib): potent inhibitor of the MEK and Akt signaling pathway than of the EGFR and HER2 signaling pathway
growth inhibitory effect [18]: sensitive to the growth inhibitory effect; also recorded: confirmed ibrutinib inhibitory activity
inhibitory effect on HER signaling pathway after washout ([19]; day 6): lasting inhibitory effect even after day 6
inhibitory effect on HER signaling pathway after washout ([19]; day 6, listed as Ibrutinib): long-lasting inhibitory effect even after day 6
inhibition of JAK3 [20]: able to inhibit
inhibitory effect on Btk signaling pathways in B cells [21]: selective inhibitory effect
inhibitory effect on Btk signaling pathways in B cells ([21]; listed as Ibrutinib): selectively inhibits
overcoming resistance induced by heregulin [22]: able to overcome resistance induced by heregulin
inhibition of ErbB kinases and down-stream signaling pathways after washout [23]: persisted after ibrutinib washout, and was time and concentration dependent
putative stem-like subpopulation of breast cancer cells ([24]; BT-474, one hour or continuous treatment): decreased
aldehyde dehydrogenase activity ([24]; BT-474, short exposures to high concentrations or continuous exposure to low concentration): decreased aldehyde dehydrogenase activity
growth inhibitory effect [25]: sensitive to the growth inhibitory effect; also recorded: confirmed ibrutinib inhibitory activity
reversibility of HER4 inhibition after dialysis [26]: irreversible inhibition
reversibility of HER4 inhibition after dialysis ([26]; listed as Ibrutinib): irreversibly inhibits
kinase inhibition after dialysis [27]: dialysis resistant
inhibition of Erb4 ([4]; recombinant enzyme 5 nM, substrate 1 μM): able to inhibit; also recorded: effective in inhibiting
inhibition of TXK [28]: able to inhibit
inhibition of ErB2 [29]: able to inhibit; also recorded: effective in inhibiting
cell cycle effect [30]: G1 arrest
apoptosis (annexin-V positivity or sub G0) ([31]; BT-474, continuous treatment 3-day, with or without caspase inhibitor Q-VD-OPH): dramatic apoptosis which was caspase-dependent
apoptosis (cells in sub G0) ([31]; BT-474, one hour treatment, 6 days after the exposure): low level of apoptosis
inhibition of BLK [32]: able to inhibit

CS(=O)(=O)CCNCc1ccc(-c2ccc3ncnc(Nc4ccc(OCc5cccc(F)c5)c(Cl)c4)c3c2)o1 [lapatinib]
covalent binding to Btk [2]: did not

CCOc1cc2ncc(C#N)c(Nc3ccc(OCc4ccccn4)c(Cl)c3)c2cc1NC(=O)/C=C/CN(C)C [neratinib]
covalent binding to Btk [2]: did not
